This is an account of results in patent US6482771B2, “Synergistic herbicidal methods and compositions” (BASF Aktiengesellschaft, priority 2000, dated 2002).

One test has as its system Bromus diandrus. Kind of test: Field plot evaluation of density reduction in Bromus diandrus (great bromegrass). Type of test: in vivo. The settings on record: 28 g/ha, weed count vs untreated plot. As to the method:
(§1) In the following examples, synergism is determined by the Colby (Colby, S. R., Weeds, 1967(15), p. 20-22) method, i.e. the expected (or predicted) response of the combination is calculated by taking the product of the observed response for each individual component of the combination when applied alone divided by 100 and subtracting this value from the sum of the observed response for each component when applied alone. Synergism of the combination is then determined by comparing the observed response of the combination to the expected (or predicted) response as calculated from the observed responses of each individual component alone. If the observed response of the combination is greater than the expected (or predicted) response then the combination is said to be synergistic.
All trials employ standard accepted weed science procedures. Applications are made to 2×10M plots with a propane gas-powered small plot boomspray applicator. Test design is a modified randomized complete block design with four replications. Applications are made at 2-6 weeks after the imidazolinone-tolerant crop is sown. […]
Using essentially the same procedure and test solutions described in Example 1, the following evaluation is carried out. In this evaluation, density reduction is measured by counting the Bromus diandrus weeds in the treated plots and comparing the count to that of the untreated plot. […]

Another test deals with Hordeum leporinum. Briefly: Field plot evaluation of biomass reduction and seedhead suppression in Hordeum leporinum (wild barley), post-emergence in an imidazolinone-tolerant crop. Type of test: in vivo. The settings on record: 28 g/ha; for Seed Head Red. Observed: seedhead count vs untreated plot; for Bio. Red. Observed: visual rating vs untreated plots, average of 4 replicates. As to the method:
as §1
All trials employ standard accepted weed science procedures. Applications are made to 2×10M plots with a propane gas-powered small plot boomspray applicator. Test design is a modified randomized complete block design with four replications. Applications are made at 2-6 weeks after the imidazolinone-tolerant crop is sown.
In this evaluation biomass reduction is determined by visually rating the numbers and bulk of Hordeum leporinum in the treatment plots as compared to the numbers and bulk in the untreated plots. Seedhead suppression is measured by counting the seedheads of Hordeum leporinum in each of the treated plots and comparing to the number of seedheads in the untreated plot.
The test solutions are prepared by tank-mixing commercial formulations. All treatments also contain 0.5% v/v of an ethoxylated vegetable oil.
The treated plots are examined at intervals during the growing season and rated for percent biomass reduction and percent seedhead suppression. The data shown are an average of the replicates for that treatment. The Colby method of analysis is used to determine the resultant biological effect of the combination treatment as compared to the biological effect of each component when applied alone.

With `Cc1cnc(C2=NC(C)(C(C)C)C(=O)N2)c(C(=O)O)c1` (stereo not drawn) [imazapic, 2-(4-isopropyl-4-methyl-5-oxo-2-imidazolin-2-yl)-5-methylnicotinic acid], the “Density Red. Obs.” value in the test on Bromus diandrus is listed as −17.29%. Also, in the test on Hordeum leporinum, the “Seed Head Red. Observed” value was determined as 5.55% and the “Bio. Red. Observed” value came out at 30%.

As for `COCc1cnc(C2=NC(C)(C(C)C)C(=O)N2)c(C(=O)O)c1` (stereo not drawn) [imazamox, 2-(4-isopropyl-4-methyl-5-oxo-2-imidazolin-2-yl)-5-(methoxymethyl)-nicotinic acid], the “Density Red. Obs.” value in the test on Bromus diandrus was determined as 98.96%. For the same molecule, in the test with Hordeum leporinum, the “Seed Head Red. Observed” value is given as 76.33% and the “Bio. Red. Observed” value is given as 80%.
